Results reported in patent US20100087493A1, “METHOD FOR IMPROVING THE PHARMACOKINETICS OF DRUGS METABOLIZED BY UGT2B10” (priority 2007, published 2010).
Where two headings read alike, the source gives them in different places.

Assays:
[1] = molecular target: T1, Recombinant human UGT2B10 (Homo sapiens, UniProt P36537); experiment: biochemical
T1 sequence (P36537 24-528): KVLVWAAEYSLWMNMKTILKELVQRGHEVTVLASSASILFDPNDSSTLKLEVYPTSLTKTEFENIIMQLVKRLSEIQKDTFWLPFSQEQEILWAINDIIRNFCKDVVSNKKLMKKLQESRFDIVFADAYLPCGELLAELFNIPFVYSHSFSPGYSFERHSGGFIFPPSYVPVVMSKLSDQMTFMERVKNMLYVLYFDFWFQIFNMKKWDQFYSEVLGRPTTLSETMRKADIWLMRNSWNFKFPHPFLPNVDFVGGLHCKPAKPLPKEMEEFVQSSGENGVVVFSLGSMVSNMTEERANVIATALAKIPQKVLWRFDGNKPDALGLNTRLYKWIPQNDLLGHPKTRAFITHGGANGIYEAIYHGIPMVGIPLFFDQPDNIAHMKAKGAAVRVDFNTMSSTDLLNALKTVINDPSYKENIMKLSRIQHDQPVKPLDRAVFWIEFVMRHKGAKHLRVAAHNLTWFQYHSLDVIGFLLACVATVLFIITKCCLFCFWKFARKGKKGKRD
Procedure: (§1) For the purpose of identifying a compound which acts as UGT2B10 modulator, recombinant cells that express UGT2B10 are prepared as described above. The cells expressing UGT2B10 are suspended in water and homogenized using known procedures. The incubation mixture is prepared by mixing recombinant UGT2B10 homogenate and uridine-5-diphosphoglucuronic acid (UDP-GA) as a glucuronic acid source in a suitable buffer such as phosphate buffer pH 7.4. […] The reaction is terminated as described above. Following centrifugation, the supernatants are analyzed and quantified for the presence of glucuronidated derivative of the substrate as described above. The UGT2B10 enzyme activity towards the substrate, in the absence and presence of the modulator, is calculated as the amount of glucuronide formed (pmol) divided by incubation time (min) and protein amount (mg/incubation). The effect of the modulator, inhibition or activation, on the enzyme activity towards the substrate is calculated as % enzyme activity at each modulator concentration compared to the enzyme activity measured in the absence of the modulator. IC50, inhibitor concentration that inhibits the activity by 50%, is used as the measure of the inhibitory effect, and the activation effect is calculated as % increase in enzyme activity. […]
(§2) The samples were analyzed by high-performance liquid chromatography-mass spectrometry (HPLC-MS).

UGT1A4 = UGT1A4 (Homo sapiens, UniProt P22310); experiment: biochemical
Procedure: as §1, §2

[2] = molecular target: T1, Recombinant human UGT2B10
Procedure: For the purpose of identifying compounds which are directly metabolized by UGT2B10, recombinant cells that express UGT2B10 are prepared according to known methods. For example, recombinant UGT2B10 can be expressed in baculovirus-infected insect cells as described e.g. in Kurkela, M. et al., Journal of Biological Chemistry, 278(6), 3536-3544, 2003. The cells expressing UGT2B10 are suspended in water and homogenized using known procedures. Incubation mixture is prepared by mixing recombinant UGT2B10 homogenate and uridine-5-diphospho-glucuronic acid (UDP-GA) as a glucuronic acid source in a suitable buffer such as phosphate buffer pH 7.4. […] The reaction is terminated by protein precipitation, e.g. by addition of trifluoroacetic acid, or acetonitrile if the formed N-glucuronide is expected to be acid-labile, and cooling. Following centrifugation, the supernatants are analysed for the presence of glucuronidated derivative of the test compound, wherein any suitable analyzing method can be used. High pressure liquid chromatography followed by mass spectrometry is the preferred method. The glucuronides are quantified using authentic glucuronide standards or another suitable methods such as substrate depletion. The enzyme activity of UGT2B10 towards the tested compound is calculated as the amount of glucuronide formed (pmol) divided by incubation time (min) and protein amount (mg/incubation). Example 1 of the present application describes a procedure suitable for identifying compounds that are glucuronidated by UGT2B10.
Recombinant human UGT2B10 were produced in baculovirus-infected insect cells and used as cell homogenate after suspending the cells with water. The glucuronidation rates were determined by incubating the substrates, nicotine and cotinine, with the enzyme UGT2B10 using uridine-5′-diphosphoglucuronic acid (UDP-GA) as a cofactor. The reaction mixtures were incubated at +37° C. for 1-2 hours. The samples were analyzed by high-performance liquid chromatography-mass spectrometry (HPLC-MS). The formed glucuronides were quantified using authentic glucuronide standards. The enzyme activity of UGT2B10 towards the tested compound was calculated as pmol glucuronide formed divided by incubation time (min) and protein amount (mg/incubation).

UGT2B10 versus UGT1A4 = molecular target: T2, UGT2B10 versus UGT1A4 (Homo sapiens, UniProt P36537); experiment: Km of nicotine glucuronidation, UGT2B10; format: in vitro ADME; conditions: read-out: Km for UGT2B10 fold less compared to UGT1A4 (selectivity)
T2 construct: made in house; host or cells: baculovirus-infected insect cells (used as cell homogenate)
T2 sequence (P36537 24-528): T1 sequence (P36537 24-528)
Description: (§3) The reaction is terminated as described above. […] 1.1 (SPSS Inc., Chicago, Ill.).
(§4) 1.1 (SPSS Inc., Chicago, Ill.) software.

in vitro = conditions: human, human liver microsomes
Procedure: The reaction is terminated as described above.
The reaction mixtures were incubated at +37° C. for 1-2 hours. The samples were analyzed by high-performance liquid chromatography-mass spectrometry (HPLC-MS).

[3] = substrate: CN1CCCC1c1cccnc1; experiment: Km of nicotine glucuronidation, UGT2B10; format: in vitro ADME, human; conditions: other: nicotine glucuronidation, 0.002-2 mM, cell homogenate; pH 7.4; 37.0 °C
Description: as §3, §4

[4] = substrate: CN1CCCC1c1cccnc1; experiment: Km of nicotine glucuronidation, UGT1A4; format: in vitro ADME, human; conditions: other: nicotine glucuronidation, 0.002-2 mM, microsomal membranes; pH 7.4; 37.0 °C
Description: as §3, §4

Cc1cccc(C(C)c2cnc[nH]2)c1C (stereo in doubt) [Levomedetomidine, (S)-4-[1-(2,3-dimethylphenyl)-ethyl]-3H-imidazole]
IC50 [1]: 13 µM
IC50 (UGT1A4): > 1000 µM

CN1C(=O)CC[C@H]1c1cccnc1 [Cotinine, cotinine]
substrate for UGT2B10 ([2]; human): substrates for UGT2B10
UGT2B10 activity ([2]; human, 2 mM): 12.7 pmol/min/mg prot.

CN1CCCC1c1cccnc1 (stereo not shown) [Nicotine, nicotine]
UGT2B10 activity ([2]; in vitro, 2 mM substrate concentration, cell homogenate): 2.9 pmol/min/mg prot.
substrate for UGT2B10 ([2]; in vitro, cell homogenate): substrates for UGT2B10
selectivity ratio (UGT2B10 versus UGT1A4): 8
Km (in vitro): 330 µM

B1: Recombinant human UGT2B10 (Homo sapiens) (protein)
chain: T1 sequence (P36537 24-528)
notes: made in house; host or cells: baculovirus-infected insect cells (used as cell homogenate)
Km [3]: 290 µM

B2: recombinant human UGT1A4 (Homo sapiens) (protein)
chain: GKVLVVPTDGSPWLSMREALRELHARGHQAVVLTPEVNMHIKEEKFFTLTAYAVPWTQKEFDRVTLGYTQGFFETEHLLKRYSRSMAIMNNVSLALHRCCVELLHNEALIRHLNATSFDVVLTDPVNLCGAVLAKYLSIPAVFFWRYIPCDLDFKGTQCPNPSSYIPKLLTTNSDHMTFLQRVKNMLYPLALSYICHTFSAPYASLASELFQREVSVVDLVSYASVWLFRGDFVMDYPRPIMPNMVFIGGINCANGKPLSQEFEAYINASGEHGIVVFSLGSMVSEIPEKKAMAIADALGKIPQTVLWRYTGTRPSNLANNTILVKWLPQNDLLGHPMTRAFITHAGSHGVYESICNGVPMVMMPLFGDQMDNAKRMETKGAGVTLNVLEMTSEDLENALKAVINDKSYKENIMRLSSLHKDRPVEPLDLAVFWVEFVMRHKGAPHLRPAAHDLTWYQYHSLDVIGFLLAVVLTVAFITFKCCAYGYRKCLGKKGRVKKAHKSKTH
notes: made in house; host or cells: baculovirus-infected insect cells (microsomal membranes isolated)
Km [4]: 2400 µM
